Values after ≈ are worked out from the molar mass of the structure shown.
Experiments:
Trichophyton mentagr. = experiment: Antimycotic in vitro activity (series dilution test), Trichophyton mentagr.; format: cell-based, Trichophyton mentagrophytes; settings: Sabourand's milieu d'epreuve, 5×10^4 germs/ml, 20° C., 96 hours, read-out: MIC values in Y/ml of nutrient medium for Trichophyton mentagr.
Experimental: (§1) Antimycotic in vitro activity
(§2) The in vitro tests were carried out in a series dilution test using germ inocula of on average 5×10^4 germs/ml of substrate. The nutrient medium used was (a) for dermatophytes and moulds: Sabourand's milieu d'epreuve, and (b) for yeasts: meat extract/glucose broth.
(§3) The incubation temperature was 20° C. and the incubation time was 24 to 96 hours for yeasts and 96 hours for dermatophytes and moulds.

Microsporum canis = experiment: Antimycotic in vitro activity (series dilution test), Microsporum canis; format: cell-based; settings: Sabourand's milieu d'epreuve, 5×10^4 germs/ml, 20° C., 96 hours, read-out: MIC values in Y/ml of nutrient medium for Microsporum canis
Experimental: as §1, §2, §3

Candida albicans = experiment: Antimycotic in vitro activity (series dilution test), Candida albicans; format: cell-based; settings: meat extract/glucose broth, 5×10^4 germs/ml, 20° C., 24 to 96 hours, read-out: MIC values in Y/ml of nutrient medium for Candida albicans
Experimental: as §1, §2, §3

Torulopsis glabrata = experiment: Antimycotic in vitro activity (series dilution test), Torulopsis glabrata; format: cell-based; settings: Nakaseomyces glabratus; meat extract/glucose broth; 5×10^4 germs/ml; 20° C.; 24 to 96 hours; read-out: MIC values in Y/ml of nutrient medium for Torulopsis glabrata
Experimental: as §1, §2, §3

Aspergillus fumigatus = experiment: Antimycotic in vitro activity (series dilution test), Aspergillus fumigatus; format: cell-based; settings: Sabourand's milieu d'epreuve, 5×10^4 germs/ml, 20° C., 96 hours, read-out: MIC values in Y/ml of nutrient medium for Aspergillus fumigatus
Experimental: as §1, §2, §3

[1] = tested on: dermatophytes, moulds and yeasts; experiment: Antimycotic in vitro activity (series dilution test), overall; format: cell-based
Experimental: as §1, §2, §3

Candida = experiment: Antimycotic in vivo action (oral) in candidosis of mice; design: species or system mice of the SPF-CF1 type; settings: 10-50 mg/kg one hour before and seven hours after i.v. infection
Experimental: Antimycotic in vivo action (oral) in candidosis of mice
Mice of the SPF-CF1 type were infected intravenously with 1-2×10^6 logarithmically growing Candida cells, suspended in physiological saline solution. The animals were treated orally one hour before and seven hours after the infection, with in each case 10-50 mg/kg of body weight of the products.
Untreated animals died 3 to 6 days after infection. The survival rate on the 6th day after infection was about 5% in the case of untreated animals.

CC(C)(Cc1ccc(Cl)cc1Cl)C(O)(Cn1cncn1)Cn1cncn1 [Example 1, 4-(2,4-dichlorophenyl)-3,3-dimethyl-2-(1,2,4-triazol-1-yl-methyl)-1-(1,2,4-triazol-1-yl)-2-butanol]
MIC (Trichophyton mentagr.): 1 µg/mL (≈ 2.53 µM)
MIC (Microsporum canis): 32 µg/mL (≈ 81 µM)
MIC (Candida albicans): 32 µg/mL (≈ 81 µM)
MIC (Torulopsis glabrata): 64 µg/mL (≈ 162 µM)
MIC (Aspergillus fumigatus): 32 µg/mL (≈ 81 µM)
antimycotic action in vitro (in words) [1]: good antimycotic action
Action (survivors on the 6th day after infection) (Candida): +++++ (very good action=90% survivors on the 6th day after infection)
action in candidosis of mice (in words) (Candida): good to very good action

CC(C)(Cc1ccc(Cl)cc1)C(O)(Cn1cncn1)Cn1cncn1 [Example 2]
MIC (Trichophyton mentagr.): 1 µg/mL (≈ 2.77 µM)
MIC (Microsporum canis): 4 µg/mL (≈ 11.1 µM)
MIC (Candida albicans): 4 µg/mL (≈ 11.1 µM)
MIC (Torulopsis glabrata): 16 µg/mL (≈ 44.3 µM)
MIC (Aspergillus fumigatus): 4 µg/mL (≈ 11.1 µM)
antimycotic action in vitro (in words) [1]: good antimycotic action
Action (survivors on the 6th day after infection) (Candida): +++++ (very good action=90% survivors on the 6th day after infection)
action in candidosis of mice (in words) (Candida): good to very good action

Cc1ccc(CC(C)(C)C(O)(Cn2cncn2)Cn2cncn2)cc1 [Example 3]
MIC (Trichophyton mentagr.): 1 µg/mL (≈ 2.94 µM)
MIC (Microsporum canis): 8 µg/mL (≈ 23.5 µM)
MIC (Candida albicans): 16 µg/mL (≈ 47 µM)
MIC (Torulopsis glabrata): 64 µg/mL (≈ 188 µM)
MIC (Aspergillus fumigatus): 4 µg/mL (≈ 11.7 µM)
antimycotic action in vitro (in words) [1]: good antimycotic action
Action (survivors on the 6th day after infection) (Candida): ++++ (good action=80% survivors on the 6th day after infection)
action in candidosis of mice (in words) (Candida): good to very good action

CC(C)(CSc1ccc(Cl)cc1)C(O)(Cn1cncn1)Cn1cncn1 [Example 5]
MIC (Trichophyton mentagr.): 1 µg/mL (≈ 2.55 µM)
MIC (Microsporum canis): 32 µg/mL (≈ 81.4 µM)
MIC (Candida albicans): 32 µg/mL (≈ 81.4 µM)
MIC (Torulopsis glabrata): 64 µg/mL (≈ 163 µM)
MIC (Aspergillus fumigatus): 32 µg/mL (≈ 81.4 µM)
antimycotic action in vitro (in words) [1]: good antimycotic action
Action (survivors on the 6th day after infection) (Candida): ++++ (good action=80% survivors on the 6th day after infection)
action in candidosis of mice (in words) (Candida): good to very good action

CC(C)(Oc1ccc(Cl)cc1)C(O)(Cn1cncn1)Cn1cncn1 [Example 6]
MIC (Trichophyton mentagr.): 32 µg/mL (≈ 88.2 µM)
MIC (Candida albicans): 4 µg/mL (≈ 11 µM)
MIC (Torulopsis glabrata): 16 µg/mL (≈ 44.1 µM)
MIC (Aspergillus fumigatus): 64 µg/mL (≈ 176 µM)
antimycotic action in vitro (in words) [1]: good antimycotic action
Action (survivors on the 6th day after infection) (Candida): ++++ (good action=80% survivors on the 6th day after infection)
action in candidosis of mice (in words) (Candida): good to very good action

CC(C)(Cc1ccc(Cl)cc1)C(O)(Cn1ccnc1)Cn1cncn1 (centres unmarked) [Example 8]
Action (survivors on the 6th day after infection) (Candida): ++++ (good action=80% survivors on the 6th day after infection)
action in candidosis of mice (in words) (Candida): good to very good action

— US4894382A, “Substituted 1,3-diazolyl-2-propanols and their use as antimycotic agents” (Bayer Aktiengesellschaft, priority 1983, dated 1990)
